Common to all, as to type: in vivo
Series [1] has as its system Yellow Fever Mosquito (Aedes aegypti, AEDSAE). Particulars: for YFM rating: Table ABC / ABC-DP rating; for YFM % Control (or Mortality) rating: about 1 day-old larvae, 4000 ppm master solution diluted with 90:10 water/acetone, 15 μL per well plus 220 μL larval mixture, 3 days. Summed up: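 Larvae ~1 day old, in liver powder/water; compound from 4000 ppm DMSO stock diluted with water/acetone (90:10); 6 reps; lidded, RT, 3 d; mortality scored per well, rated.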

The subject of series [2] is Cabbage Looper (Trichoplusia ni, TRIPNI). Put plainly: Bioassays on Cabbage Looper (CL), 128-well diet tray assay. Particulars: Trichoplusia ni; for mortality at 50 µg/cm2: 168 h, second instar larvae, 50 μg/cm^2 of test molecule on artificial diet, 25° C., five to seven days, average of eight wells, read-out: CL % Control (or Mortality) rating. Summed up:
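Test molecule was dissolved in 90:10 acetone-water, applied to artificial diet at 50 μg/cm^2 and allowed to dry. Second-instar larvae were then added, one to five per well, and trays held at 25° C for five to seven days before mortality was scored and averaged.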

Series [3] has as its system Beet Armyworm (Spodoptera exigua, LAPHEG). Nature of the series: Bioassays on Beet Armyworm (BAW), 128-well diet tray assay. As to conditions: Spodoptera exigua; for mortality at 50 µg/cm2: 168 h, second instar larvae, 50 μg/cm^2 of test molecule on artificial diet, 25° C., five to seven days, average of eight wells, read-out: BAW % Control (or Mortality) rating. The essentials: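 Mortality of second-instar larvae (1–5/well) on artificial diet treated with 50 μg/cm^2 compound, read after 5–7 days at 25° C.; values are means of eight wells.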

[4] abbreviates: Cabbage Looper, Table ABC / ABC-DP rating, read-out: CL rating.
Where [5] appears, read: Beet Armyworm, Table ABC / ABC-DP rating, read-out: BAW rating.
[6] abbreviates: Yellow Fever Mosquito, rating class.
Setting [7] is: Cabbage Looper, rating class, read-out: CL.
Where [8] appears, read: Beet Armyworm, rating class, read-out: BAW.
[9] abbreviates: Table ABC: Biological Results, species YFM.
[10] abbreviates: Table ABC: Biological Results, species CL, read-out: CL.
[11] abbreviates: Table ABC: Biological Results, species BAW, read-out: BAW.

Like-named read-outs stand apart in the source and are kept apart here.

For `CC(C)=NNC(=O)c1cc(NC(=O)[C@H]2[C@H](c3cc(Cl)cc(Cl)c3)C2(Cl)Cl)ccc1Cl` (relative stereo) [F3010, trans-2,2-Dichloro-N-(4-chloro-3-(2-(propan-2-ylidene)hydrazine-1-carbonyl)phenyl)-3-(3,5-dichlorophenyl)cyclopropane-1-carboxamide], the YFM rating entry in series [1] (Yellow Fever Mosquito) is “A (80–100)”. Moreover, in series [1], the “YFM % Control (or Mortality) rating” value is “A (80–100)”. Besides, the mortality at 50 µg/cm2 in series [2] and in series [3] was 50 to 100% throughout. Moreover, the pest or weed control at 50 µg/cm2 in series [2] (setting [4]) and in series [3] (setting [5]) was 50 to 100% throughout.

Regarding `O=C(Nc1c(F)ccc(NC(=O)C(F)F)c1F)c1cc(NC(=O)[C@H]2[C@H](c3ccc(F)c(C(F)(F)F)c3)C2(Cl)Cl)ccc1F` [F1561, 5-((1R,3R)-2,2-Dichloro-3-(4-fluoro-3-(trifluoromethyl)phenyl)cyclopropane-1-carboxamido)-N-(3-(2,2-difluoroacetamido)-2,6-difluorophenyl)-2-fluorobenzamide], the YFM result in series [1] (setting [6]) is given as “A (80–100)”. In addition, the pest or weed control at 50 µg/cm2 in series [2] (setting [7]) and in series [3] (setting [8]) was 50 to 100% throughout.

With `O=C(Nc1ccc(F)cc1F)c1cc(NC(=O)[C@H]2[C@H](c3cc(Br)cc(S(F)(F)(F)(F)F)c3)C2(Cl)Cl)ccc1Cl` (relative stereo) [F1031, trans-5-(3-(3-Bromo-5-(pentafluoro-λ^6-sulfanyl)phenyl)-2,2-dichlorocyclopropane-1-carboxamido)-2-chloro-N-(2,4-difluorophenyl)benzamide], in series [1] (setting [9]), the YFM result is “A (80–100)”. In addition, the pest or weed control at 50 µg/cm2 in series [2] (setting [10]) and in series [3] (setting [11]) was 50 to 100% each time.

For `CS(=O)(=O)N(c1c(F)ccc(NC(=O)c2cc(NC(=O)[C@H]3[C@H](c4ccc(F)c(C(F)(F)F)c4)C3(Cl)Cl)ccc2Cl)c1F)S(C)(=O)=O` [F1277, 2-chloro-5-((1R,3R)-2,2-dichloro-3-(4-fluoro-3-(trifluoromethyl)phenyl)cyclopropane-1-carboxamido)-N-(2,4-difluoro-3-(N-(methylsulfonyl)methylsulfonamido)phenyl)benzamide], in series [1] (setting [9]), the YFM result is listed as “A (80–100)”. Also, the pest or weed control at 50 µg/cm2 in series [2] (setting [10]) and in series [3] (setting [11]) was 50 to 100% in each case.

Turning to `CC(Cl)(Cl)C(=O)Nc1c(F)ccc(NC(=O)c2cc(NC(=O)[C@H]3[C@H](c4ccc(F)c(C(F)(F)F)c4)C3(Cl)Cl)ccc2Cl)c1F` [F1351, 2-Chloro-5-((1R,3R)-2,2-dichloro-3-(4-fluoro-3-(trifluoromethyl)phenyl)cyclopropane-1-carboxamido)-N-(3-(2,2-dichloropropanamido)-2,4-difluorophenyl)benzamide], the YFM entry in series [1] (setting [9]) was “A (80–100)”. The pest or weed control at 50 µg/cm2 in series [2] (setting [10]) and in series [3] (setting [11]) was 50 to 100% each time.

As to `Nc1c(F)ccc(NC(=O)c2cc(NC(=O)[C@H]3[C@H](c4cc(Br)cc(S(F)(F)(F)(F)F)c4)C3(Cl)Cl)ccc2Cl)c1F` (relative stereo) [F1042, trans-N-(3-Amino-2,4-difluorophenyl)-5-(3-(3-bromo-5-(pentafluoro-λ^6-sulfanyl)phenyl)-2,2-dichlorocyclopropane-1-carboxamido)-2-chlorobenzamide], the YFM result in series [1] (setting [9]) is listed as “A (80–100)”. The pest or weed control at 50 µg/cm2 in series [2] (setting [10]) and in series [3] (setting [11]) was 50 to 100% throughout.

Regarding `O=C(Nc1ccc(F)c(NC(=O)C(F)(F)Cl)c1F)c1cc(NC(=O)[C@H]2[C@H](c3ccc(F)c(C(F)(F)F)c3)C2(Cl)Cl)ccc1Cl` [F1170, 2-Chloro-N-(3-(2-chloro-2,2-difluoroacetamido)-2,4-difluorophenyl)-5-((1R,3R)-2,2-dichloro-3-(4-fluoro-3-(trifluoromethyl)phenyl)cyclopropane-1-carboxamido)benzamide], the YFM entry in series [1] (setting [9]) is “A (80–100)”. Besides, the pest or weed control at 50 µg/cm2 in series [2] (setting [10]) and in series [3] (setting [11]) was 50 to 100% each time.

For the molecule `CC(=O)Nc1c(F)ccc(NC(=O)c2cc(NC(=O)[C@H]3[C@H](c4ccc(Cl)c(Cl)c4)C3(Cl)Cl)cc(F)c2F)c1F` [F1442, N-(3-Acetamido-2,4-difluorophenyl)-5-((1R,3R)-2,2-dichloro-3-(3,4-dichlorophenyl)cyclopropane-1-carboxamido)-2,3-difluorobenzamide], the YFM result in series [1] (setting [6]) is “A (80–100)”. Besides, the pest or weed control at 50 µg/cm2 in series [2] (setting [7]) and in series [3] (setting [8]) was 50 to 100% in each case.

`O=C(Nc1ccc(F)c(NC(=O)C(F)F)c1F)c1cc(NC(=O)[C@H]2[C@H](c3cc(Cl)cc(Br)c3)C2(Cl)Cl)ccc1Cl` (relative stereo) [F1618, trans-5-(3-(3-Bromo-5-chlorophenyl)-2,2-dichlorocyclopropane-1-carboxamido)-2-chloro-N-(3-(2,2-difluoroacetamido)-2,4-difluorophenyl)benzamide]: the YFM result in series [1] (setting [6]) was “A (80–100)”. The pest or weed control at 50 µg/cm2 in series [2] (setting [7]) and in series [3] (setting [8]) was 50 to 100% throughout.

Turning to `O=C(Nc1ccc(F)cc1Br)c1cc(NC(=O)[C@H]2[C@H](c3cc(Cl)cc(Cl)c3)C2(Cl)Cl)ccc1Cl` (relative stereo) [F1305, trans-N-(2-Bromo-4-fluorophenyl)-2-chloro-5-(2,2-dichloro-3-(3,5-dichlorophenyl)cyclopropane-1-carboxamido)benzamide], the YFM entry in series [1] (setting [9]) was “A (80–100)”. Besides, the pest or weed control at 50 µg/cm2 in series [2] (setting [10]) and in series [3] (setting [11]) was 50 to 100% throughout.

With `CN(C(=O)C(F)(F)F)c1c(F)ccc(NC(=O)c2cc(NC(=O)[C@H]3[C@H](c4ccc(Cl)c(Cl)c4)C3(Cl)Cl)ccc2Cl)c1F` [F1614, 2-Chloro-5-((1R,3R)-2,2-dichloro-3-(3,4-dichlorophenyl)cyclopropane-1-carboxamido)-N-(2,4-difluoro-3-(2,2,2-trifluoro-N-methylacetamido)phenyl)benzamide], the YFM result in series [1] (setting [6]) was “A (80–100)”. Moreover, the pest or weed control at 50 µg/cm2 in series [2] (setting [7]) and in series [3] (setting [8]) was 50 to 100% throughout.

As for `O=C(NNc1ccccn1)c1cc(NC(=O)[C@H]2[C@H](c3cc(Cl)cc(Cl)c3)C2(Cl)Cl)ccc1Cl` (relative stereo) [F2502, trans-2,2-dichloro-N-(4-chloro-3-(2-(pyridin-2-yl)hydrazine-1-carbonyl)phenyl)-3-(3,5-dichlorophenyl)cyclopropane-1-carboxamide], in series [1] (Yellow Fever Mosquito), the YFM rating result is given as “A (80–100)”. The pest or weed control at 50 µg/cm2 in series [2] (setting [4]) and in series [3] (setting [5]) was 50 to 100% in each case.

As to `N#Cc1ccccc1NNC(=O)c1cc(NC(=O)[C@H]2[C@H](c3cc(Cl)cc(Cl)c3)C2(Cl)Cl)ccc1Cl` (relative stereo) [F2576, trans-2,2-Dichloro-N-(4-chloro-3-(2-(2-cyanophenyl)hydrazine-1-carbonyl)phenyl)-3-(3,5-dichlorophenyl)cyclopropane-1-carboxamide], the YFM rating entry in series [1] (Yellow Fever Mosquito) was “A (80–100)”. Besides, the “YFM % Control (or Mortality) rating” value in series [1] is “A (80–100)”. Also, the mortality at 50 µg/cm2 in series [2] and in series [3] was 50 to 100% throughout. Also, the pest or weed control at 50 µg/cm2 in series [2] (setting [4]) and in series [3] (setting [5]) was 50 to 100% in each case.

With `O=C(NCC(F)(F)F)c1cc(NC(=O)[C@H]2[C@@H](c3ccc(F)c(Cl)c3F)C2(Cl)Cl)ccc1Cl` (relative stereo) [F2010, cis-2-Chloro-5-(2,2-dichloro-3-(3-chloro-2,4-difluorophenyl)cyclopropane-1-carboxamido)-N-(2,2,2-trifluoroethyl)benzamide], the YFM rating entry in series [1] (Yellow Fever Mosquito) is listed as “A (80–100)”. The pest or weed control at 50 µg/cm2 in series [2] (setting [4]) and in series [3] (setting [5]) was 50 to 100% each time.

In the case of `Cc1cc(NCCO)ccc1NC(=O)c1cc(NC(=O)[C@H]2[C@H](c3cc(Cl)cc(Cl)c3)C2(Cl)Cl)ccc1Cl` (relative stereo) [F1130, trans-2-chloro-5-(2,2-dichloro-3-(3,5-dichlorophenyl)cyclopropane-1-carboxamido)-N-(4-((2-hydroxyethyl)amino)-2-methylphenyl)benzamide], in series [1] (setting [9]), the YFM entry was “A (80–100)”. For the same molecule, the pest or weed control at 50 µg/cm2 in series [2] (setting [10]) and in series [3] (setting [11]) was 50 to 100% throughout.

With `Nc1c(F)ccc(NC(=O)c2cc(NC(=O)[C@H]3[C@H](c4cc(F)cc(C(F)(F)F)c4)C3(Cl)Cl)ccc2Cl)c1F` [F1687, N-(3-Amino-2,4-difluorophenyl)-2-chloro-5-((1R,3R)-2,2-dichloro-3-(3-fluoro-5-(trifluoromethyl)phenyl)cyclopropane-1-carboxamido)benzamide], the YFM entry in series [1] (setting [6]) is reported as “A (80–100)”. Moreover, the pest or weed control at 50 µg/cm2 in series [2] (setting [7]) and in series [3] (setting [8]) was 50 to 100% in each case.

Source of the values: patent US20250228239A1, “MOLECULES HAVING PESTICIDAL UTILITY, AND INTERMEDIATES, COMPOSITIONS, AND PROCESSES, RELATED THERETO” (priority 2024, published 2025).
